Results taken from PMC12040169 (PLOS Biology, 2025).

test: in vitro; settings: human, hela cells, % viability

Compared with `Cc1nn2cc(CNC(=O)C3Cc4ccccc4O3)nc2s1` (stereo not shown) [CBK307498], `Cc1cc(C)n(CCCC(=O)NCCc2cn3ccccc3n2)n1` [CBK304414] is higher in viability at 28.5 h, 10 µM: 73.4% for the first, 94.6% for the second.

First: Cc1cc(C(=O)N2CCC(Cc3ccccc3)CC2)n[nH]1 [CBK200187]
Second: Cc1cc(C(=O)N2CCCc3ccccc32)n[nH]1 [CBK200346]
The viability at 28.5 h, 10 µM of the first is lower: 84.2% for the first, 92% for the second.

Compared with `COc1ccccc1NC(=N)Nc1nc(CSc2nc3ccccc3s2)cc(=O)[nH]1` [CBK269046], `COc1ccc2nc(O)c(CN(c3ccccc3)S(=O)(=O)c3ccccc3)cc2c1` [CBK268093] is higher in viability at 28.5 h, 10 µM: 86% for the first, 97.7% for the second.

Going from `CN1CCN(CCC(=O)N2CCN(c3ncccn3)CC2)CC1` [CBK144520] to `Cc1nn(CC(=O)N2CCN(Cc3ccccn3)CC2)c(C)c1Cl` [CBK305978], the viability at 28.5 h, 10 µM rises from 84.5% to 93.8%.

Compared with `CCN1C(=O)CC2(C1=O)C(=O)N(CCc1cccs1)c1ccc(Cl)cc12` (stereo not shown) [CBK075614], `O=C1CSC2(C(=O)Nc3ccc(Br)cc32)N1c1cccc([N+](=O)[O-])c1` (stereo not shown) [CBK093451] is lower in viability at 28.5 h, 10 µM: 106% for the first, 94.3% for the second.

First: O=C(Nc1ccccc1)[C@H]1O[C@H](CCN2CCN(c3ccccn3)CC2)CC[C@@H]1O [CBK288726]
Second: CC(=O)Nc1cccc(-c2ccc(N3CCN(CCN(C)C)CC3)nc2)c1 [CBK036857]
The viability at 28.5 h, 10 µM of the first is lower: 87.9% for the first, 104% for the second.

Compared with `CS(=O)(=O)Nc1nccnc1N1CCN(Cc2ccc(Cl)c(Cl)c2)CC1` [CBK084267], `O=S(=O)(c1cccc2nsnc12)N1CCCN(Cc2ccsc2)CC1` [CBK038570] is higher in viability at 28.5 h, 10 µM: 98.7% for the first, 105% for the second.

Compared with `Cn1nc(C(Cc2ccccc2)NC(=O)c2ccco2)c2cccnc21` (stereo not shown) [CBK285223], `O=C(CCc1ccccc1)N1CCC(c2n[nH]c3ncccc23)CC1` [CBK284906] is lower in viability at 28.5 h, 10 µM: 97.1% for the first, 94.3% for the second.

Going from `CN1CCC(CNS(=O)(=O)c2cccc3c2OCC3)CC1=O` (stereo not shown) [CBK305465] to `CCc1ccccc1S(=O)(=O)N1CCOC(c2cnn(CC)c2)C1` (stereo not shown) [CBK305421], the viability at 28.5 h, 10 µM falls from 114% to 94.8%.

Compared with `Cc1noc(C)c1C(=O)N(C)Cc1cc(-c2ccncc2)no1` [CBK306677], `CCc1onc(C)c1C(=O)NC(Cc1ccsc1)c1nccs1` (stereo not shown) [CBK285142] is lower in viability at 28.5 h, 10 µM: 102% for the first, 94% for the second.

Going from `CCOC(=O)c1ccc(-c2[nH]cnc2-c2c(C)cc(OC)cc2O)o1` [CBK026647] to `CC1(C)CC(=O)c2c(O)cc(OCC(=O)c3ccc(Cl)c(Cl)c3)cc2O1` [CBK267573], the viability at 28.5 h, 10 µM falls from 113% to 89.1%.

First: CC(=O)Nc1ccc(S(=O)(=O)Nc2ccc(S(=O)(=O)Nc3ccc(C)c(C)c3)cc2)cc1 [CBK264643]
Second: CC(C)Cc1ccc(S(=O)(=O)Nc2ccc(C(=O)O)cc2)cc1 [CBK297930]
The viability at 28.5 h, 10 µM of the first is higher: 101% for the first, 98.4% for the second.

Going from `CCc1c(C)nc2ccccc2c1S(=O)(=O)CCC(=O)OC` [CBK155468T] to `Cc1nc(NS(=O)(=O)Cc2ccccc2[N+](=O)[O-])sc1C(=O)O` [CBK045564], the viability at 28.5 h, 10 µM falls from 96.8% to 89.5%.

`COc1ccc(-c2nccnc2NCCCN(C)C)cc1` [CBK037671] and `COc1ccc(OCC(=O)Nc2nonc2-c2ccccc2)cc1` [CBK287798] are the same in viability at 28.5 h, 10 µM: 93.9% for the first, 93.9% for the second.

Compared with `COC(=O)c1csc2nc(NCCCO)sc12` [CBK058832], `COc1ccc2nc(C(=O)O)sc2c1` [CBK026523N] is lower in viability at 28.5 h, 10 µM: 91.4% for the first, 88.4% for the second.

Going from `O=C(O)C1CC(=O)N(CCc2ccccc2)/C(=N/CCc2ccccc2)S1` (stereo not shown) [CBK265558] to `O=C(O)c1ccc(Br)c(S(=O)(=O)NCc2ccccc2)c1` [CBK263202], the viability at 28.5 h, 10 µM rises from 89.2% to 90.8%.

Compared with `COCCSCc1cn2cc(Br)ccc2n1` [CBK306361], `COCCn1cnnc1C(C)NC(=O)c1nc2ccccc2[nH]1` (stereo not shown) [CBK307366] is higher in viability at 28.5 h, 10 µM: 96.5% for the first, 101% for the second.

Going from `CCOC(=O)C(Cc1ccccc1)C(=O)Nc1ccc(Cl)cc1` (stereo not shown) [CBK261463] to `CCN(Cc1ccccc1)[C@@H](CO)Cc1ccc(OC)cc1` [CBK073856T], the viability at 28.5 h, 10 µM rises from 84.2% to 89.6%.

Compared with `CCCCOC(=O)c1c(N)n(-c2ccc(C(=O)O)cc2)c2nc3ccccc3nc12` [CBK265046], `CCCCOc1ccc(C=Cc2nc3sc(C(=O)O)c(C)c3c(=O)[nH]2)cc1` [CBK297524] is lower in viability at 28.5 h, 10 µM: 94.6% for the first, 86.5% for the second.

Going from `CC(=O)N1CCC[C@H]2NC(=O)CNC(=O)C3(C/C=C/C[C@H]21)CCNCC3` [CBK292173] to `CC(=O)N1CCN(C(=O)NC(C)C)C[C@@H]1C(=O)N[C@@H](CC1CCCCC1)C(N)=O` [CBK289633], the viability at 28.5 h, 10 µM rises from 89.8% to 91.8%.

First: C#CCNCCCOc1ccccc1Oc1ccccc1 [CBK017707C]
Second: Nc1ncnc(Nc2ccc(Nc3ccccc3)cc2)c1[N+](=O)[O-] [CBK267347]
The viability at 28.5 h, 10 µM of the first is higher: 94.2% for the first, 88.9% for the second.

First: CCc1nc2ccc(NC(=O)c3csc(C(C)=O)c3)cc2[nH]1 [CBK282538]
Second: CCn1c(C)nc2cc(NC(=O)Cn3cc(C(=O)NC4CCCCC4)ccc3=O)ccc21 [CBK286095]
The viability at 28.5 h, 10 µM of the first is higher: 114% for the first, 92.9% for the second.

Going from `COCCc1noc(CC2CCN(c3nc(C)cc(C#N)n3)CC2)n1` [CBK304179] to `Cc1cc(C)c2c(n1)sc1c(N3CCC(C(=O)O)CC3)ncnc12` [CBK300512], the viability at 28.5 h, 10 µM falls from 88.5% to 83.1%.

Going from `O=c1[nH]nc2c3ccc(Cl)cc3ncn12` [CBK283988] to `Cc1ccc(C)c(-n2nnnc2SCC(=O)c2ccc(Cl)cc2Cl)c1` [CBK141941], the viability at 28.5 h, 10 µM rises from 62.3% to 98.1%.

Going from `Cc1cnn(C2CCCN(C(=O)Cc3cccs3)C2)c1` (stereo not shown) [CBK304832] to `COCCn1ccnc1C1CCCN(C(=O)COc2ccccc2Cl)C1` (stereo not shown) [CBK307211], the viability at 28.5 h, 10 µM falls from 102% to 90.2%.

Going from `O=C(CN1C(=O)N2CCN=C2c2ccc(Cl)cc21)NCC1CC1` [CBK282877] to `COc1ccccc1N1CCN(C(=O)c2c(Cl)cnn2C)CC1` [CBK288247], the viability at 28.5 h, 10 µM rises from 94.2% to 94.3%.

Compared with `Cc1c(S(=O)(=O)N2CCN(C)CC2)sc2ccc(C(C)C)cc12` [CBK170362], `CN1CCN(C(=O)c2sccc2NS(=O)(=O)c2ccc3ccccc3c2)CC1` [CBK004631] is higher in viability at 28.5 h, 10 µM: 90.1% for the first, 91.7% for the second.

First: Cc1ccn2ncc(C(=O)N3CCCCCC3c3ccco3)c2n1 (stereo not shown) [CBK304015]
Second: O=C1CC(c2ccco2)Cc2c1cnn2-c1ccccc1 (stereo not shown) [CBK287860]
The viability at 28.5 h, 10 µM of the first is higher: 111% for the first, 95.8% for the second.

First: NS(=O)(=O)c1ccc(NC(=S)NNC(=S)Nc2ccc(F)cc2F)cc1 [CBK267102]
Second: NS(=O)(=O)c1ccc(CCNC=C2C(=O)c3ccccc3C2=O)cc1 [CBK262997]
The viability at 28.5 h, 10 µM of the first is lower: 93.3% for the first, 99% for the second.

Going from `CC(C)N1CC(C(=O)N(C)C)C2(CCc3ccccc3C2O)C1` (stereo not shown) [CBK286305] to `CC(SC1CCc2ccccc2NC1=O)C(=O)O` (stereo not shown) [CBK286652], the viability at 28.5 h, 10 µM falls from 89.1% to 87.1%.

Going from `NC(=O)C1CCN(C(=O)CN2CCN(Cc3ccccc3)CC2)CC1` [CBK265971C] to `O=C(NCCn1cccn1)N1CCCN(Cc2ccncc2)CC1` [CBK307129], the viability at 28.5 h, 10 µM rises from 82.8% to 90.1%.

Going from `O=C(Nc1cc(Cl)ccc1C(=O)O)c1ccc2c(c1)C(=O)N(Cc1cccnc1)C2=O` [CBK266455] to `O=C(Cc1cccc2ccccc12)Nc1cc(C(=O)O)cc(C(=O)O)c1` [CBK268475], the viability at 28.5 h, 10 µM rises from 89.9% to 94.4%.

First: Cc1ccc(S(=O)(=O)CC(=O)Nc2ncccn2)cc1 [CBK269800]
Second: O=S(=O)(Nc1ncc(Br)c2cccnc12)c1cccc(C(F)(F)F)c1 [CBK073884]
The viability at 28.5 h, 10 µM of the first is lower: 97.3% for the first, 112% for the second.

Compared with `Cc1cc(NC(=O)CCN2CCCCC2)no1` [CBK017079], `O=C(Nc1cccc(O)c1)c1ccc(Br)c(S(=O)(=O)N2CCCCC2)c1` [CBK261736] is lower in viability at 28.5 h, 10 µM: 99% for the first, 91.9% for the second.

Compared with `COc1cccc(OCCN2CCC3(C2)NCCc2c3[nH]c3cc(OC)ccc23)c1` (stereo not shown) [CBK061794], `C=Cn1ncc(CN2CCc3[nH]c4ccc(OCC)cc4c3C2)c1C` [CBK282574] is lower in viability at 28.5 h, 10 µM: 94.3% for the first, 89.7% for the second.

First: NC(=O)c1ccc(-c2cncc(N3CCN(CCO)CC3)n2)cc1 [CBK065392]
Second: COc1ccc(CNC(=O)N2CCN(c3cc(C(F)(F)F)ccn3)CC2)cc1OC [CBK162344]
The viability at 28.5 h, 10 µM of the first is higher: 96.5% for the first, 82.5% for the second.

Compared with `CN(C)c1ccccc1-c1cnc(N2CCOCC2)c2nccn12` [CBK091280], `O=C(O)c1ccc(S(=O)(=O)N2CCOCC2)cc1` [CBK287201] is lower in viability at 28.5 h, 10 µM: 90.7% for the first, 82.2% for the second.

Going from `CCOCCn1c(N2CC(C)CC(C)C2)nc2c1c(=O)[nH]c(=O)n2C` (stereo not shown) [CBK306200] to `CCCCn1c(SCC(=O)c2cc(C)n(CCc3ccc(OC)cc3)c2C)n[nH]c1=O` [CBK295351], the viability at 28.5 h, 10 µM rises from 83.6% to 96.1%.

First: N#Cc1ccc(CNC2(Cc3cc(CO)on3)COC2)cc1 [CBK289647]
Second: N#Cc1ccc(C(=O)N2C[C@@H]3C[C@H](C2)c2ccc(-c4cccs4)c(=O)n2C3)cc1 [CBK289180]
The viability at 28.5 h, 10 µM of the first is higher: 104% for the first, 86% for the second.

Going from `Cc1nn(C)cc1-c1cncn1CCCn1ccnc1C(C)C` [CBK281972] to `CC(C)[C@@H](CO)NC(=O)c1cnc(-c2cccc(C(F)(F)F)c2)c(-c2cccnc2)c1` [CBK037520], the viability at 28.5 h, 10 µM rises from 81.6% to 112%.

First: CC(=O)Nc1ccc(N2CC34C=CC(O3)C(C(=O)O)C4C2=O)cc1 (stereo not shown) [CBK287020]
Second: CC(=O)Nc1cccc(-n2nnnc2SCc2cnn(C)c2)c1 [CBK305471]
The viability at 28.5 h, 10 µM of the first is lower: 100% for the first, 101% for the second.

First: CN(C)C(=O)c1ccc(-c2cnc(OCC3CCN(C(=O)OC(C)(C)C)CC3)cn2)cc1F [CBK175076]
Second: COc1ccc([C@H]2CN(Cc3ccccc3)[C@@H]3CCN(C(=O)c4ccccc4F)C[C@H]23)cc1 [CBK285542]
The viability at 28.5 h, 10 µM of the first is higher: 118% for the first, 91.1% for the second.

Compared with `c1ccc2c(c1)nnn2Cc1nnc2sc(-c3cnccn3)nn12` [CBK268393], `Nc1ccc(S(=O)(=O)c2ccc(-n3c(=O)c4cc5c(=O)n(-c6ccc(S(=O)(=O)c7ccc(N)cc7)cc6)c(=O)c5cc4c3=O)cc2)cc1` [CBK261490] is higher in viability at 28.5 h, 10 µM: 84.7% for the first, 92% for the second.

In the case of `CCOC(=O)CNS(=O)(=O)c1cc(Cl)sc1Cl` [CBK034431], the viability at 28.5 h, 10 µM is reported as 113%.

same assay, conditions: human, hela cells, % viability, bulk resorufin, single well

`CSc1cc(C)c2c(c1)COC1(CCN(C(=O)Nc3c(C)noc3C)CC1)O2` [CBK060699] gave a viability at 28.5 h, 10 µM of 95.3%.
